In one experiment the test system is HG-3 cell line. Description: Nuclear CDK9 co-immunoprecipitation (LC-MS/MS proteomics, western blot). It is filed as cell-based, human. As for the experimental part:
HG-3 cell line was treated with 1 µM VIP152 or DMSO for 2 h; nuclei were isolated using the Nuclear Complex Co-IP Kit (Active Motif) according to the manufacturer’s protocol. Nuclear lysate was immunoprecipitated using a CDK9 antibody (ab239364 - Abcam) or isotype control (3900 S – Cell Signaling Technology) with Dynabeads™ Protein G Immunoprecipitation Kit (10007D – ThermoFisher Scientific). Beads were submitted for proteomics to the Ohio State University Proteomics Center at the Campus Chemical Instrument Center. Full proteomic methods are available in the supplementary methods section.
Having observed the transcriptomic effects of VIP152 inhibition, we hypothesized a change in the P-TEFb complex would occur validating the mechanism of this agent. Previously, Dow et al. described changes in P-TEFb nuclear complexes with flavopiridol treatment; specifically, they observed loss of nuclear speckles of P-TEFb complexes containing HEXIM1, a major component of the 7SK-RNA complex that inhibits P-TEFb. We observed an increase in the 42 kDa and 55 kDa isoforms of CDK9, as well as Cyclin T1, in the nuclear fraction following treatment (Fig. 4A, B). […] Next, a nuclear immunoprecipitation of CDK9 after a two-hour drugging in the HG-3 cell line (n = 3) was performed, followed by liquid chromatography with tandem mass spectrometry (LC-MS/MS). We detected 226 differentially co-localized proteins and again observed an enrichment in the treated fraction for P-TEFb (Fig. 4B, C). […] These findings were validated via western blot in the MEC-1 and HG-3 cell lines (Supplementary Fig. 9). […] Finally, to appreciate the effect of inhibition on the association with the inhibitory 7SK-RNA complex, we performed reciprocal nuclear co-immunoprecipitation of CDK9 and HEXIM1 (Fig. 4E and Supplementary Fig. 10). […] This decrease in 7SK association due to inhibition is consistent with other work characterizing the disruption of the 7SK complex as a result of cellular stresses.
MSGF+ search engine against a reviewed UniProt human proteome (downloaded 12/07/2020) containing the cRAP and MaxQuant contaminant FASTAs32. Search parameters included: full trypsin digest, 1 missed cleavage, carbamidomethylation of cysteine as a fixed modification and oxidation of methionine as a variable modification with precursor and fragment mass tolerances of 10 ppm and 5 Da. PSM rescoring was performed with Percolator and protein inference was performed with Epifany across all samples, setting peptide and protein false discovery rates to 0.05. […]
All data analysis was performed with R (version 3.6.2) with various packages and is included in supplemental material (zipped File_S1). […] Data was quantile normalized, and significance (p-value < 0.05) determined by a modified exact test. […]
(In general: Immunoblotting shows a protein as a band on a membrane.)

In experiment [1] the test system is Calcium Channel L-Type, Benzothiazepine. Nature of the experiment: Eurofins Diversity Panel. It is filed as binding. To be noted: rat, Conc. 10 μM.
For another experiment, the target named is Histamine H1 (Homo sapiens, UniProt P35367). Nature of the experiment: Eurofins Diversity Panel. It is filed as binding. Conditions: hum, Conc. 10 μM.
The target in the next experiment is ROCK1 (Homo sapiens, UniProt Q13464). Nature of the experiment: KINOMEscan: ROCK1. The class given is binding. Conditions: 100 nM, read-out: Percent Control.
Experiment [2] has as its target RPS6KA5(Kin.Dom.2-C-terminal) (Homo sapiens, UniProt O75582). Description: KINOMEscan: RPS6KA5(Kin.Dom.2-C-terminal). Conditions: 100 nM, read-out: Percent Control. The class given is binding.
In experiment [3] the target is RSK4(Kin.Dom.2-C-terminal) (Homo sapiens, UniProt Q9UK32). Nature of the experiment: KINOMEscan: RSK4(Kin.Dom.2-C-terminal). It is filed as binding. To be noted: 100 nM, read-out: Percent Control.
Chain of RSK4(Kin.Dom.2-C-terminal) (Q9UK32 401-745 limits assumed): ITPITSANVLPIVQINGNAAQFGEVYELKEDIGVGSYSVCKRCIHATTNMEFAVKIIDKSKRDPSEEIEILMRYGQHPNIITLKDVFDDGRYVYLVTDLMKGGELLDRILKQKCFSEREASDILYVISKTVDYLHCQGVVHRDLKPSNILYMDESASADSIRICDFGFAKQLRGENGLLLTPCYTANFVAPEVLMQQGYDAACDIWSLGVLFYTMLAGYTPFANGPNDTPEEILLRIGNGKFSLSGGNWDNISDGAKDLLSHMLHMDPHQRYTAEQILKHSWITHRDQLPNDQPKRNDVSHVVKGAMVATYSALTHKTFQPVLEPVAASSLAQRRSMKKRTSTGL
A further experiment deals with TNK2 (Homo sapiens, UniProt Q07912). Description: KINOMEscan: TNK2. The class given is binding. Conditions: 100 nM, read-out: Percent Control.
Chain of TNK2 (Q07912 whole entry): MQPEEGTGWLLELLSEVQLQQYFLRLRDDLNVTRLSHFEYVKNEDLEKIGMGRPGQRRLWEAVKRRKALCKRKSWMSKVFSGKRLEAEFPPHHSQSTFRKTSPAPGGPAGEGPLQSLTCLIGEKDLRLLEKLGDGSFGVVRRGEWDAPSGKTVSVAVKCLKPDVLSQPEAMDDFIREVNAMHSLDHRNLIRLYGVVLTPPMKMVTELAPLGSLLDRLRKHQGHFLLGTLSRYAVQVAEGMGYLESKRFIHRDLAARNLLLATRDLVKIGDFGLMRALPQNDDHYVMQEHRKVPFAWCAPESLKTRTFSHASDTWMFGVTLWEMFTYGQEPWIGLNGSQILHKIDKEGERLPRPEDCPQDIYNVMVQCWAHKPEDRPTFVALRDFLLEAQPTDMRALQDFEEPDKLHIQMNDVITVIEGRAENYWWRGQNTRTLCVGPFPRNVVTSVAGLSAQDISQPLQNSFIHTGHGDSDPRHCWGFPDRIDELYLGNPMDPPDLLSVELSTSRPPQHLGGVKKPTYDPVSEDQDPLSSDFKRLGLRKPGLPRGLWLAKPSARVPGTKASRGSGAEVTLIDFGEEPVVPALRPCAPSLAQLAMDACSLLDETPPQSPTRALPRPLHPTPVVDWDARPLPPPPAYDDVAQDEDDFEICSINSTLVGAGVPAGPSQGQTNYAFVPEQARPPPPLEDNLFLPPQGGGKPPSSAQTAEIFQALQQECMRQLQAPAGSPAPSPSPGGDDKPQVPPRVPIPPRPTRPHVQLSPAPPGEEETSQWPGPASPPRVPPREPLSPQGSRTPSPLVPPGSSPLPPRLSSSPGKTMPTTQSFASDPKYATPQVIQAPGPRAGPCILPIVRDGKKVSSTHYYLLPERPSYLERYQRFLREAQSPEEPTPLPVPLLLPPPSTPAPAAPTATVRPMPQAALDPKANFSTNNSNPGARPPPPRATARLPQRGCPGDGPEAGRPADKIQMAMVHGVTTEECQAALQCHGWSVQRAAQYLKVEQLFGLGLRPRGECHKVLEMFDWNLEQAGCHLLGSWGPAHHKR
The target of a further experiment is TTK (Homo sapiens, UniProt P33981). Description: KINOMEscan: TTK. Conditions: 100 nM, read-out: Percent Control. It is filed as binding.
The target of another experiment is YANK3 (Homo sapiens, UniProt Q86UX6). Description: KINOMEscan: YANK3. To be noted: 100 nM, read-out: Percent Control. It is filed as binding.
The next experiment addresses ANKK1 (Homo sapiens, UniProt Q8NFD2). Nature of the experiment: KINOMEscan: ANKK1. It is filed as binding. Conditions: 1000 nM, read-out: Percent Control.
In the next experiment the target is AURKB (Homo sapiens, UniProt Q96GD4). Nature of the experiment: KINOMEscan: AURKB. To be noted: 1000 nM, read-out: Percent Control. The class given is binding.
The target in the next experiment is EGFR(E746-A750del) (Homo sapiens, UniProt P00533, DEL746-750). Nature of the experiment: KINOMEscan: EGFR(E746-A750del). The class given is binding. To be noted: 1000 nM, read-out: Percent Control.
Chain of EGFR(E746-A750del) (P00533 with tags, fused parts or gaps DEL746-750 limits assumed): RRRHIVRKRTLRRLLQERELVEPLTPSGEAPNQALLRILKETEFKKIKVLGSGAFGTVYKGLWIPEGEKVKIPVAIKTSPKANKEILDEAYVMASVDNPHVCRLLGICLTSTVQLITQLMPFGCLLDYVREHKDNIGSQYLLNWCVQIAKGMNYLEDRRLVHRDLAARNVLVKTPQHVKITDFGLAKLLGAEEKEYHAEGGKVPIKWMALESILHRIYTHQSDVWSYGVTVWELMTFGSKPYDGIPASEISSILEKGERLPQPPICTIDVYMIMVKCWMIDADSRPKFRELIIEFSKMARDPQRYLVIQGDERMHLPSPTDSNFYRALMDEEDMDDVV
For another experiment, the target named is EPHA4 (Homo sapiens, UniProt P54764). Description: KINOMEscan: EPHA4. To be noted: 1000 nM, read-out: Percent Control. The class given is binding.
A further experiment has as its target GRK1 (Homo sapiens, UniProt Q15835). Description: KINOMEscan: GRK1. It is filed as binding. To be noted: 1000 nM, read-out: Percent Control.
Another experiment addresses GRK2 (Homo sapiens, UniProt P25098). Nature of the experiment: KINOMEscan: GRK2. The class given is binding. To be noted: 1000 nM, read-out: Percent Control.
In another experiment the target is HIPK3 (Homo sapiens, UniProt Q9H422). Description: KINOMEscan: HIPK3. The class given is binding. To be noted: 1000 nM, read-out: Percent Control.
Chain of HIPK3 (Q9H422 whole entry): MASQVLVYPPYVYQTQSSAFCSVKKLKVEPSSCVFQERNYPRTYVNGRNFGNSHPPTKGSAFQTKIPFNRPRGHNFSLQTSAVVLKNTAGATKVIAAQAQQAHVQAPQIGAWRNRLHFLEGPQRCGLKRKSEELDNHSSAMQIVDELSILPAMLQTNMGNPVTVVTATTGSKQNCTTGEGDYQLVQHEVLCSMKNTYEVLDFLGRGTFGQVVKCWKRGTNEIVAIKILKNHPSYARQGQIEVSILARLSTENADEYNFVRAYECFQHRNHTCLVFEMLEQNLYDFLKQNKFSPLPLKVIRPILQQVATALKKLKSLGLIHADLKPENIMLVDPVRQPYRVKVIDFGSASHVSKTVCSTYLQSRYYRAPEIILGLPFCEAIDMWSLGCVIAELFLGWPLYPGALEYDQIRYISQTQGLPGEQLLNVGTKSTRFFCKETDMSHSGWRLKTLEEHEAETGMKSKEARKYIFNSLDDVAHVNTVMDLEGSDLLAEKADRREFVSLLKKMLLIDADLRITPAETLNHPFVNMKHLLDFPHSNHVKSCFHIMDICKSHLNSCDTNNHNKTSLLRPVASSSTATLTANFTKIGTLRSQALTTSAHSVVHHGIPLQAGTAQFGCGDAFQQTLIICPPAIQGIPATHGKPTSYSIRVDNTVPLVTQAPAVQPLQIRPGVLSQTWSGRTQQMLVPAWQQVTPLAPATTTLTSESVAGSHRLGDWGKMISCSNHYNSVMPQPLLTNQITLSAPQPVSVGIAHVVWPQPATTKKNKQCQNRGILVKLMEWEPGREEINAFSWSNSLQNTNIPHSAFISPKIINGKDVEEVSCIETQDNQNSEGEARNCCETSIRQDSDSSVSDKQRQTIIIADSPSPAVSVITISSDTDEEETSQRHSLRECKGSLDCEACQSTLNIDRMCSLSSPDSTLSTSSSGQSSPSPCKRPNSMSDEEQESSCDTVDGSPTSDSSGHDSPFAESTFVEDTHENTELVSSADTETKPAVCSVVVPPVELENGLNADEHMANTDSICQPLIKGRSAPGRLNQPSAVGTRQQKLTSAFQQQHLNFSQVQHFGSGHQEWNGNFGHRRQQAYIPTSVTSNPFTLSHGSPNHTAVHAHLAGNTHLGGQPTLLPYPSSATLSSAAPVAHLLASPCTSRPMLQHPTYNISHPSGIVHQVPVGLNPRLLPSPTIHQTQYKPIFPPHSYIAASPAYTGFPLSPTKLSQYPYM
Experiment [4] concerns the target JAK2(JH1domain-catalytic) (Homo sapiens, UniProt O60674). Nature of the experiment: KINOMEscan: JAK2(JH1domain-catalytic). The class given is binding. To be noted: 1000 nM, read-out: Percent Control.
The target in another experiment is JNK2 (Homo sapiens, UniProt P45984). Nature of the experiment: KINOMEscan: JNK2. It is filed as binding. To be noted: 1000 nM, read-out: Percent Control.
For another experiment, the target named is KIT(L576P) (Homo sapiens, UniProt P10721, L576P). Description: KINOMEscan: KIT(L576P). Conditions: 1000 nM, read-out: Percent Control. The class given is binding.
Chain of KIT(L576P) (P10721 26-976 L576P): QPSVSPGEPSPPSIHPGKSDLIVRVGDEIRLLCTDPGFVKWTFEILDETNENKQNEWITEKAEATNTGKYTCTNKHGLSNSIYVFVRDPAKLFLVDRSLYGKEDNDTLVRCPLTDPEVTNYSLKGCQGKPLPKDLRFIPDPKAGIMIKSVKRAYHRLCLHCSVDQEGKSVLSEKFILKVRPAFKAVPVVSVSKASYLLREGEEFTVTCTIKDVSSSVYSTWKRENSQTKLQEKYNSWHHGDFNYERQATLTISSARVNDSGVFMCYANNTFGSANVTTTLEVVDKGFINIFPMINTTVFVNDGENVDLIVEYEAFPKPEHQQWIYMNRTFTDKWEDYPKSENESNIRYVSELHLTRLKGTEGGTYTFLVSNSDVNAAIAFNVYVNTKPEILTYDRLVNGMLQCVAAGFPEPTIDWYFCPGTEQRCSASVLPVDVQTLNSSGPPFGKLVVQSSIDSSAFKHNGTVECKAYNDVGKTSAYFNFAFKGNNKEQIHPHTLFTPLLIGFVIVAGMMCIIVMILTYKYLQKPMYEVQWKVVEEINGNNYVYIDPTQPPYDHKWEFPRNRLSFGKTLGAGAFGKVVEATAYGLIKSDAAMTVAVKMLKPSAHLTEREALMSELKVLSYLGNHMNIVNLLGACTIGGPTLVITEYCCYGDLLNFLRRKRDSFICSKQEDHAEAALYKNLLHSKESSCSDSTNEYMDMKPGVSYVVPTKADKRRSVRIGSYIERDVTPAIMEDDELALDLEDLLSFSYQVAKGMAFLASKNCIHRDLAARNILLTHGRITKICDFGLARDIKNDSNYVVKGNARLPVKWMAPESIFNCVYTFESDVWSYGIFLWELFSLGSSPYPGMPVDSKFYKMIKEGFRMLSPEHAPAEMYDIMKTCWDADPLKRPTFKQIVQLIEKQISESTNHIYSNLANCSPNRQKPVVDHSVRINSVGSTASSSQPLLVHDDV
Another experiment deals with MST1 (Homo sapiens, UniProt Q13043). Description: KINOMEscan: MST1. It is filed as binding. To be noted: 1000 nM, read-out: Percent Control.

Chain of GRK1 (Q15835 whole entry): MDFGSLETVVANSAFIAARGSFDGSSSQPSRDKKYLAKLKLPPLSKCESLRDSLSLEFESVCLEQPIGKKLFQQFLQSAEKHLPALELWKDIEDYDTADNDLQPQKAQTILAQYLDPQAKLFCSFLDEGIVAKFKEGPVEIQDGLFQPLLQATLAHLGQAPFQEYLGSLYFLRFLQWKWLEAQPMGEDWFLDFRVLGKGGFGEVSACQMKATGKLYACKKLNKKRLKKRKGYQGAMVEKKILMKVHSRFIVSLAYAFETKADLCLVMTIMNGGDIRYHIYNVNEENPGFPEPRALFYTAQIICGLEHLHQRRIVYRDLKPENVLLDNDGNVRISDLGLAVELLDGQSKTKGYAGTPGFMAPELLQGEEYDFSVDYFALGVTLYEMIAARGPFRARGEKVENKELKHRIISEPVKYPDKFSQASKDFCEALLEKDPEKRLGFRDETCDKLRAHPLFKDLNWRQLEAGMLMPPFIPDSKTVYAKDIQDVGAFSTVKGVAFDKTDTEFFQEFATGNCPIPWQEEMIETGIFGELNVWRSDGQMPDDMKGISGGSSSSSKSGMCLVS
Chain of JAK2(JH1domain-catalytic) (O60674 849-1132 limits assumed): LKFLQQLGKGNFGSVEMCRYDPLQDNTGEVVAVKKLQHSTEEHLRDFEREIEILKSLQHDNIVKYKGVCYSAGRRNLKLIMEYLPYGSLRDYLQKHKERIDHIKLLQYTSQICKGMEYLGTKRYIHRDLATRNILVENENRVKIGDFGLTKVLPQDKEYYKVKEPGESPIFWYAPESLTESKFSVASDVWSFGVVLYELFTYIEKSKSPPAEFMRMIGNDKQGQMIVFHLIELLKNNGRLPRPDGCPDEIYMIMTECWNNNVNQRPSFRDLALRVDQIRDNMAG

`COc1cc(F)ccc1-c1cc(Nc2cc(CS(C)(=N)=O)ccn2)ncc1F` (centres unmarked) [VIP152]: the “association with transcription-associated machinery (SPT6H and IWS1) and RPB3” value in the experiment on HG-3 cell line (1 µM, 2 h, nuclear IP of CDK9) was “decreased association”. The compound further had a differentially co-localized proteins in the experiment with HG-3 cell line (1 µM, 2 h, nuclear IP of CDK9, LC-MS/MS) of 226. Moreover, in the experiment with HG-3 cell line (1 µM, 2 h, nuclear IP of CDK9, proteomics), the “association with DDX21, Fold Change” value was found to be 1.47. The “association of CDK9 with 7SK-RNA complex components (HEXIM1, MEPCE, LARP7)” value with HG-3 cell line (HG-3 and MEC-1, reciprocal nuclear co-immunoprecipitation of CDK9 and HEXIM1) is “decreased association”. In addition, the “% Inh.” value in [1] is 16%. Besides, on Histamine H1, the inhibition (commonly the relative decrease from the control value, in per cent) at 10 µM was 1%. Moreover, the remaining binding at 0.1 µM on ROCK1 was 100%; in experiment [2], 100%; in experiment [3], 100%; at TNK2, 100%; at TTK, 95%; on YANK3, 99%. Further, the remaining binding at 1 µM on ANKK1 stood at 83%; on AURKB, 57%; on EGFR(E746-A750del), 76%; on EPHA4 it was 94%; on GRK1, 88%; on GRK2, 98%. The remaining binding at 1 µM on HIPK3 came out at 66%; in [4], 66%; at JNK2 it was 83%; at KIT(L576P), 72%; on MST1 it was 92%.

(Values after paper PMC9898036, “VIP152 is a selective CDK9 inhibitor with pre-clinical in vitro and in vivo efficacy in chronic lymphocytic leukemia” (Leukemia, 2022).)
